# Test system: 242566-281-R-J2-PDC complex spheroid viability
# Assay: Anticancer human tumor 242566-281-R-J2-PDC patient-derived pancreatic carcinoma cell line growth inhibition [RAS]
# Conditions: for IC50: curve of first compound; for viability, T/C: stronger effect = lower value
# Description: RAS pathway inhibitors in Combinations in Complex Spheroids
# A high-throughput screen of multi-cell type tumor spheroids was designed to identify active combinations of RAS pathway inhibitors and targeted small molecules. Complex spheroids include a stromal component modeled by human endothelial cells (HUVEC) and fibroblasts modeled by human mesenchymal stem cells (MSCs). The concentration ranges selected for each drug and investigational agent were based upon clinically achievable concentrations if the clinical Cmax of the agent was known.
# Compounds. The drugs and investigational agents: abemaciclib (NSC768073), cobimetinib (NSC768068), divarasib (GDC6063, NSC841802), docetaxel (NSC628503), GDC-1971 (RLY-1971, NSC841576), gemcitabine (NSC613327), inavolisib (NSC800729), ipatasertib (NSC767898), KB-0742 (NSC834161), MRTX-1133 (NSC836407), osimertinib (NSC779217), RMC-4630 (NSC839698), RMC-6236 (NSC851965), RMC-6291 (NSC852671), Ro-3306 (NSC812927), sapanisertib (NSC764658), SN-38 (NSC673596), staurosporine (NSC755774), SY5609 (NSC837396), and tovorafenib (DAY101, NSC766906), were obtained from the National Cancer Institute (NCI) Developmental Therapeutics Program Chemical Repository. The FDA-approved anticancer drug set is available from the NCI Developmental Therapeutics Program. […] The stock solutions were prepared in dimethyl sulfoxide (DMSO, Sigma-Aldrich, St. Louis, MO, cat. D2650) at 800-fold the tested concentration and stored at -70 degrees C prior to their use. All drugs and investigational agents were tested over a range starting from a high concentration at or near the clinical Cmax and decreasing in half-log increments. If the clinical Cmax for an agent had not been determined, the highest concentration tested was 10 microM.
# Cell Culture. All cells were maintained in an incubator at 37 degrees C and 5% CO2 with 95% humidity. The PDC lines were cultured according to standard operating procedures established by the NCI PDMR. All PDCs were thawed and cultured in Matrigel-coated flasks prepared with a working solution of 1X Ham's F-12 nutrient mix, without supplementation (Invitrogen, Waltham, MA, cat. 11765054), 100 U/mL penicillin-streptomycin (Invitrogen, cat. 15140122), and 2.5% Matrigel (Corning Inc., Corning, NY, cat. 354248) for the first three passages. The 362531-283-R-J2-PDC and 782815-120-R-J1-PDC lines were cultured in 6C/Colon 1B media, which includes advanced DMEM/F-12 (Thermo Fisher Scientific, cat. 12634028), 10 mM HEPES (Thermo Fisher Scientific, cat. 15630080), 1X GlutaMAX supplement (Thermo Fisher Scientific, cat. 35050061), 0.1 mg/mL primocin (InvivoGen, San Diego, CA, cat. ant-pm-2), 10% defined fetal bovine serum, heat inactivated (HyClone Laboratories Inc., Logan, UT, cat. SH30070.03HI), 50% L-WRN conditioned media (ATCC, cat. CRL-3276), 1.25 mM N-Acetyl-L-cysteine (Sigma-Aldrich, cat. A9165), 10 mM nicotinamide (Sigma-Aldrich, cat. N0636), 1X B-27 supplement (Thermo Fisher Scientific, cat. 17504044), 1X N-2 supplement (Thermo Fisher Scientific, cat. 17502048), 50 ng/mL human EGF (Thermo Fisher Scientific, cat. PHG0311), and 10 microM Y-27632 dihydrochloride (Tocris Bioscience, cat. 1254). The K12877-001-R-J1-PDC line was cultured in 6I media, which includes all 6C/Colon 1B media plus 10 ng/mL human FGF-10 (PeproTech, cat. 100-26), 1 ng/mL human FGF-2 (PeproTech, cat. 100-18B), 1 µM prostaglandin E2 (Tocris Bioscience, cat. 2296), […] hydrocortisone (Sigma-Aldrich, cat. H4001), and […] bovine insulin (Sigma-Aldrich, cat. I6634). The K86415-001-R-J1-PDC line was cultured in 6D media, which includes all 6C/Colon 1B media components minus the L-WRN conditioned media. The 485176-168-R4-J1-PDC was cultured in PANC media, which includes all 6C/Colon 1B media plus 100 ng/mL human FGF-10 (PeproTech, cat. 100-26), 500 nM SB-431542 (Selleckchem, cat. S1067), and 10 nM gastrin (Tocris Bioscience, cat. 3006). […]
# 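Further: spheroids exposed to compound for 7 days before readout.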
# 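Wherever viability, T/C is given: 100% = DMSO vehicle control wells.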
compound,measurement,setting,value
CCc1c2c(nc3ccc(O)cc13)-c1cc3c(c(=O)n1C2)COC(=O)[C@]3(O)CC + CCn1c(-c2cc(N3CCN(C)CC3)cnc2C(C)OC)c2c3cc(ccc31)-c1csc(n1)CC(NC(=O)C1CC1C)C(=O)N1CCCC(N1)C(=O)OCC(C)(C)C2,IC50,second compound 0.000949 µM,14.5 nM
same,IC50,second compound 0.003 µM,6.76 nM
same,IC50,second compound 0.00949 µM,< 0.949 nM
same,IC50,second compound 0.03 µM,< 0.949 nM
same,IC50,second compound 0.0949 µM,< 0.949 nM
same,IC50,second compound 0.3 µM,< 0.949 nM
same,"viability, T/C","second compound 0.000949 µM, first compound 0.000949 µM",101%
same,"viability, T/C","second compound 0.000949 µM, first compound 0.003 µM",89%
same,"viability, T/C","second compound 0.000949 µM, first compound 0.00949 µM",49.6%
same,"viability, T/C","second compound 0.000949 µM, first compound 0.03 µM",40.2%
same,"viability, T/C","second compound 0.000949 µM, first compound 0.0949 µM",22.3%
same,"viability, T/C","second compound 0.000949 µM, first compound 0.3 µM",9.11%
same,"viability, T/C","second compound 0.003 µM, first compound 0.000949 µM",92.3%
same,"viability, T/C","second compound 0.003 µM, first compound 0.003 µM",62.8%
same,"viability, T/C","second compound 0.003 µM, first compound 0.00949 µM",43.8%
same,"viability, T/C","second compound 0.003 µM, first compound 0.03 µM",29.8%
same,"viability, T/C","second compound 0.003 µM, first compound 0.0949 µM",19.4%
same,"viability, T/C","second compound 0.003 µM, first compound 0.3 µM",8.62%
same,"viability, T/C","second compound 0.00949 µM, first compound 0.000949 µM",48.8%
same,"viability, T/C","second compound 0.00949 µM, first compound 0.003 µM",39.1%
same,"viability, T/C","second compound 0.00949 µM, first compound 0.00949 µM",38.8%
same,"viability, T/C","second compound 0.00949 µM, first compound 0.03 µM",24.8%
same,"viability, T/C","second compound 0.00949 µM, first compound 0.0949 µM",17.9%
same,"viability, T/C","second compound 0.00949 µM, first compound 0.3 µM",12.2%
same,"viability, T/C","second compound 0.03 µM, first compound 0.000949 µM",33%
same,"viability, T/C","second compound 0.03 µM, first compound 0.003 µM",32.8%
same,"viability, T/C","second compound 0.03 µM, first compound 0.00949 µM",27%
same,"viability, T/C","second compound 0.03 µM, first compound 0.03 µM",21.1%
same,"viability, T/C","second compound 0.03 µM, first compound 0.0949 µM",13.9%
same,"viability, T/C","second compound 0.03 µM, first compound 0.3 µM",11.9%
same,"viability, T/C","second compound 0.0949 µM, first compound 0.000949 µM",22.9%
same,"viability, T/C","second compound 0.0949 µM, first compound 0.003 µM",24.1%
same,"viability, T/C","second compound 0.0949 µM, first compound 0.00949 µM",21.8%
same,"viability, T/C","second compound 0.0949 µM, first compound 0.03 µM",15.9%
same,"viability, T/C","second compound 0.0949 µM, first compound 0.0949 µM",11.2%
same,"viability, T/C","second compound 0.0949 µM, first compound 0.3 µM",9.7%
same,"viability, T/C","second compound 0.3 µM, first compound 0.000949 µM",22.7%
same,"viability, T/C","second compound 0.3 µM, first compound 0.003 µM",20.4%
same,"viability, T/C","second compound 0.3 µM, first compound 0.00949 µM",18.1%
same,"viability, T/C","second compound 0.3 µM, first compound 0.03 µM",12.5%
same,"viability, T/C","second compound 0.3 µM, first compound 0.0949 µM",13.3%
same,"viability, T/C","second compound 0.3 µM, first compound 0.3 µM",8.58%
C=CC(=O)Nc1cc(Nc2nccc(-c3cn(C)c4ccccc34)n2)c(OC)cc1N(C)CCN(C)C + C=CC(=O)N1CCN(c2nc(OCC3CCCN3C)nc3c(F)c(-c4nc(N)cc(C)c4C(F)(F)F)c(Cl)cc23)C(C)C1,IC50,second compound 0.00316 µM,> 1000 nM
same,IC50,second compound 0.01 µM,> 1000 nM
same,IC50,second compound 0.0316 µM,> 1000 nM
same,IC50,second compound 0.1 µM,> 1000 nM
same,IC50,second compound 0.316 µM,> 1000 nM
same,IC50,second compound 1 µM,> 1000 nM
same,"viability, T/C","second compound 0.00316 µM, first compound 0.00316 µM",95.1%
same,"viability, T/C","second compound 0.00316 µM, first compound 0.01 µM",133%
same,"viability, T/C","second compound 0.00316 µM, first compound 0.0316 µM",82.7%
same,"viability, T/C","second compound 0.00316 µM, first compound 0.1 µM",74.5%
same,"viability, T/C","second compound 0.00316 µM, first compound 0.316 µM",80.5%
same,"viability, T/C","second compound 0.00316 µM, first compound 1 µM",85.7%
same,"viability, T/C","second compound 0.01 µM, first compound 0.00316 µM",97.6%
same,"viability, T/C","second compound 0.01 µM, first compound 0.01 µM",138%
same,"viability, T/C","second compound 0.01 µM, first compound 0.0316 µM",86.7%
same,"viability, T/C","second compound 0.01 µM, first compound 0.1 µM",93.4%
same,"viability, T/C","second compound 0.01 µM, first compound 0.316 µM",86.1%
same,"viability, T/C","second compound 0.01 µM, first compound 1 µM",84.8%
same,"viability, T/C","second compound 0.0316 µM, first compound 0.00316 µM",109%
same,"viability, T/C","second compound 0.0316 µM, first compound 0.01 µM",121%
same,"viability, T/C","second compound 0.0316 µM, first compound 0.0316 µM",90.7%
same,"viability, T/C","second compound 0.0316 µM, first compound 0.1 µM",91%
same,"viability, T/C","second compound 0.0316 µM, first compound 0.316 µM",79.8%
same,"viability, T/C","second compound 0.0316 µM, first compound 1 µM",78.3%
same,"viability, T/C","second compound 0.1 µM, first compound 0.00316 µM",105%
same,"viability, T/C","second compound 0.1 µM, first compound 0.01 µM",136%
same,"viability, T/C","second compound 0.1 µM, first compound 0.0316 µM",103%
same,"viability, T/C","second compound 0.1 µM, first compound 0.1 µM",95.4%
same,"viability, T/C","second compound 0.1 µM, first compound 0.316 µM",78.9%
same,"viability, T/C","second compound 0.1 µM, first compound 1 µM",76.8%
same,"viability, T/C","second compound 0.316 µM, first compound 0.00316 µM",104%
same,"viability, T/C","second compound 0.316 µM, first compound 0.01 µM",121%
same,"viability, T/C","second compound 0.316 µM, first compound 0.0316 µM",96.4%
same,"viability, T/C","second compound 0.316 µM, first compound 0.1 µM",79.2%
same,"viability, T/C","second compound 0.316 µM, first compound 0.316 µM",95.3%
same,"viability, T/C","second compound 0.316 µM, first compound 1 µM",87.2%
same,"viability, T/C","second compound 1 µM, first compound 0.00316 µM",108%
same,"viability, T/C","second compound 1 µM, first compound 0.01 µM",129%
same,"viability, T/C","second compound 1 µM, first compound 0.0316 µM",81%
same,"viability, T/C","second compound 1 µM, first compound 0.1 µM",112%
same,"viability, T/C","second compound 1 µM, first compound 0.316 µM",83.7%
same,"viability, T/C","second compound 1 µM, first compound 1 µM",89.8%
